Results from patent publication US10577363B2, “Substituted piperidine compounds” (EPIZYME, INC., priority 2014, dated 2020).

Target: SMYD3 (Homo sapiens (Human), UniProt Q9H7B4)
Experiment: SMYD3 biochemical assay (SPA, 3H-SAM methylation of MEKK2 protein substrate)
Settings: read-out: SMYD3 Biochem IC50 (μM)*
In short: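 Methylation of N-terminally GST-tagged MEKK2 by untagged full-length human SMYD3, using 3H-SAM, in pH 8.0 Tris buffer with TCEP, BSG and Tween 20; enzyme and compound sat 30 min at room temperature before substrate addition. Stopped with 100 uM (final) cold SAM; incorporation read by scintillation proximity as dpm/cpm.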

| SMILES | IC50 |
| --- | --- |
| COCCS(=O)(=O)N1CC[C@@H](NC(=O)c2cc(C3CC3)on2)C[C@@H]1C [compound 248, 5-cyclopropyl-N-((2S,4R)-1-((2-methoxyethyl)sulfonyl)-2-methylpiperidin-4-yl)isoxazole-3-carboxamide] | > 10 µM |
| CCCS(=O)(=O)N1CC[C@@H](NC(=O)c2cc(C3CC3)on2)C[C@H]1C [compound 249, 5-cyclopropyl-N-((2R,4R)-2-methyl-1-(propylsulfonyl)piperidin-4-yl)isoxazole-3-carboxamide] | > 10 µM |
| CC(C)CS(=O)(=O)N1CC[C@@H](NC(=O)c2cc(C3CC3)on2)C[C@H]1C [compound 250, 5-cyclopropyl-N-((2R,4R)-1-(isobutylsulfonyl)-2-methylpiperidin-4-yl)isoxazole-3-carboxamide] | 9.45 µM |
| CCCCS(=O)(=O)N1CC[C@@H](NC(=O)c2cc(C3CC3)on2)C[C@H]1C [compound 251, N-((2R,4R)-1-(butylsulfonyl)-2-methylpiperidin-4-yl)-5-cyclopropylisoxazole-3-carboxamide] | 6.15 µM |
| CCOC(=O)CS(=O)(=O)N1CC[C@@H](NC(=O)c2cc(C3CC3)on2)C[C@H]1C [compound 252, ethyl 2-(((2R,4R)-4-(5-cyclopropylisoxazole-3-carboxamido)-2-methylpiperidin-1-yl)sulfonyl)acetate] | > 10 µM |
| C[C@@H]1C[C@H](NC(=O)c2cc(C3CC3)on2)CCN1S(=O)(=O)c1ccc(Cl)nc1 [compound 253, N-((2R,4R)-1-((6-chloropyridin-3-yl)sulfonyl)-2-methylpiperidin-4-yl)-5-cyclopropylisoxazole-3-carboxamide] | > 10 µM |
| C[C@@H]1C[C@H](NC(=O)c2cc(C3CC3)on2)CCN1S(=O)(=O)N1CCCC1 [compound 254, 5-cyclopropyl-N-((2R,4R)-2-methyl-1-(pyrrolidin-1-ylsulfonyl)piperidin-4-yl)isoxazole-3-carboxamide] | 4.14 µM |
| C[C@@H]1C[C@H](NC(=O)c2cc(C3CC3)on2)CCN1S(=O)(=O)N1CCN(C)CC1 [compound 255, 5-cyclopropyl-N-((2R,4R)-2-methyl-1-((4-methylpiperazin-1-yl)sulfonyl)piperidin-4-yl)isoxazole-3-carboxamide] | 1.2 µM |
| COC(=O)CCS(=O)(=O)N1CC[C@@H](NC(=O)c2cc(C3CC3)on2)C[C@H]1C [compound 256, methyl 3-(((2R,4R)-4-(5-cyclopropylisoxazole-3-carboxamido)-2-methylpiperidin-1-yl)sulfonyl)propanoate] | > 10 µM |
| COCCS(=O)(=O)N1CC[C@@H](NC(=O)c2cc(C3CC3)on2)C[C@H]1C [compound 257, 5-cyclopropyl-N-((2R,4R)-1-((2-methoxyethyl)sulfonyl)-2-methylpiperidin-4-yl)isoxazole-3-carboxamide] | 9.29 µM |
| C[C@@H]1C[C@H](NC(=O)c2cc(C3CC3)on2)CCN1S(=O)(=O)CCC(F)(F)F [compound 258, 5-cyclopropyl-N-((2R,4R)-2-methyl-1-((3,3,3-trifluoropropyl)sulfonyl)piperidin-4-yl)isoxazole-3-carboxamide] | 8.37 µM |
| COCCCS(=O)(=O)N1CC[C@@H](NC(=O)c2cc(C3CC3)on2)C[C@H]1C [compound 259, 5-cyclopropyl-N-((2R,4R)-1-((3-methoxypropyl)sulfonyl)-2-methylpiperidin-4-yl)isoxazole-3-carboxamide] | > 10 µM |
| CCS(=O)(=O)N1CC[C@H](NC(=O)c2cc(C3CC3)on2)C[C@@H]1C [compound 260, 5-cyclopropyl-N-((2S,4S)-1-(ethylsulfonyl)-2-methylpiperidin-4-yl)isoxazole-3-carboxamide] | 2.45 µM |
| CCS(=O)(=O)N1CC[C@@H](NC(=O)c2cc(C3CC3)on2)C[C@H]1C [compound 261, 5-cyclopropyl-N-((2R,4R)-1-(ethylsulfonyl)-2-methylpiperidin-4-yl)isoxazole-3-carboxamide] | > 10 µM |
| CCS(=O)(=O)N1CC[C@@H](NC(=O)c2cc(C3CC3)on2)C[C@@H]1C [compound 262, 5-cyclopropyl-N-((2S,4R)-1-(ethylsulfonyl)-2-methylpiperidin-4-yl)isoxazole-3-carboxamide] | > 10 µM |
| C[C@@H]1CC(NC(=O)c2cc(C3CC3)on2)CCN1C(=O)CC1CCCC(N)C1 (stereo partly drawn) [compound 264, N-((2R)-1-(2-(3-aminocyclohexyl)acetyl)-2-methylpiperidin-4-yl)-5-cyclopropylisoxazole-3-carboxamide] | 0.41 µM |
| C[C@H]1C[C@H](NC(=O)c2cc(C3CC3)on2)CCN1C(=O)CC1(CN)CCCCC1 [compound 266, N-((2S,4R)-1-(2-(1-(aminomethyl)cyclohexyl)acetyl)-2-methylpiperidin-4-yl)-5-cyclopropylisoxazole-3-carboxamide] | > 10 µM |
| C[C@@H]1C[C@@H](NC(=O)c2cc(C3CC3)on2)CCN1C(=O)CC1(CN)CCCCC1 [compound 267, N-((2R,4S)-1-(2-(1-(aminomethyl)cyclohexyl)acetyl)-2-methylpiperidin-4-yl)-5-cyclopropylisoxazole-3-carboxamide] | 8.52 µM |

| SMILES | IC50 |
| --- | --- |
| C[C@@H]1C[C@@H](NC(=O)c2cc(C3CC3)on2)CCN1C(=O)CC(C)(C)CN [compound 268, N-((2R,4S)-1-(4-amino-3,3-dimethylbutanoyl)-2-methylpiperidin-4-yl)-5-cyclopropylisoxazole-3-carboxamide] | 3.15 µM |
| C[C@H]1C[C@H](NC(=O)c2cc(C3CC3)on2)CCN1C(=O)CCCCN [compound 273, N-((2S,4R)-1-(5-aminopentanoyl)-2-methylpiperidin-4-yl)-5-cyclopropylisoxazole-3-carboxamide] | 7.83 µM |
| C[C@H]1C[C@@H](NC(=O)c2cc(C3CC3)on2)CCN1S(=O)(=O)C1CC1 [compound 276, 5-cyclopropyl-N-((2S,4S)-1-(cyclopropylsulfonyl)-2-methylpiperidin-4-yl)isoxazole-3-carboxamide] | 3.63 µM |
| C[C@H]1C[C@@H](NC(=O)c2cc(C3CC3)on2)CCN1S(=O)(=O)N1CCCC1 [compound 277, 5-cyclopropyl-N-((2S,4S)-2-methyl-1-(pyrrolidin-1-ylsulfonyl)piperidin-4-yl)isoxazole-3-carboxamide] | 0.654 µM |
| CNS(=O)(=O)N1CC[C@H](NC(=O)c2cc(C3CC3)on2)C[C@@H]1C [compound 278, 5-cyclopropyl-N-((2S,4S)-2-methyl-1-(N-methylsulfamoyl)piperidin-4-yl)isoxazole-3-carboxamide] | 2.89 µM |
| COC(=O)CCS(=O)(=O)N1CC[C@H](NC(=O)c2cc(C3CC3)on2)C[C@@H]1C [compound 280, methyl 3-(((2S,4S)-4-(5-cyclopropylisoxazole-3-carboxamido)-2-methylpiperidin-1-yl)sulfonyl)propanoate] | 4.85 µM |
| COCCCS(=O)(=O)N1CC[C@H](NC(=O)c2cc(C3CC3)on2)C[C@@H]1C [compound 281, 5-cyclopropyl-N-((2S,4S)-1-((3-methoxypropyl)sulfonyl)-2-methylpiperidin-4-yl)isoxazole-3-carboxamide] | 1.87 µM |
| COC(=O)CCS(=O)(=O)N1CC[C@H](NC(=O)c2cc(C3CC3)on2)C[C@H]1C [compound 282, methyl 3-(((2R,4S)-4-(5-cyclopropylisoxazole-3-carboxamido)-2-methylpiperidin-1-yl)sulfonyl)propanoate] | > 10 µM |
| COCCCS(=O)(=O)N1CC[C@H](NC(=O)c2cc(C3CC3)on2)C[C@H]1C [compound 284, 5-cyclopropyl-N-((2R,4S)-1-((3-methoxypropyl)sulfonyl)-2-methylpiperidin-4-yl)isoxazole-3-carboxamide] | > 10 µM |
| CC(C)OCCS(=O)(=O)N1CC[C@H](NC(=O)c2cc(C3CC3)on2)C[C@H]1C [compound 285, 5-cyclopropyl-N-((2R,4S)-1-((2-isopropoxyethyl)sulfonyl)-2-methylpiperidin-4-yl)isoxazole-3-carboxamide] | > 10 µM |
| C[C@H]1C[C@H](NC(=O)c2cc(C3CC3)on2)CCN1S(=O)(=O)c1ccc(Cl)nc1 [compound 287, N-((2S,4R)-1-((6-chloropyridin-3-yl)sulfonyl)-2-methylpiperidin-4-yl)-5-cyclopropylisoxazole-3-carboxamide] | > 10 µM |
| C[C@H]1C[C@H](NC(=O)c2cc(C3CC3)on2)CCN1S(=O)(=O)N1CCCC1 [compound 288, 5-cyclopropyl-N-((2S,4R)-2-methyl-1-(pyrrolidin-1-ylsulfonyl)piperidin-4-yl)isoxazole-3-carboxamide] | > 10 µM |
| CNS(=O)(=O)N1CC[C@@H](NC(=O)c2cc(C3CC3)on2)C[C@@H]1C [compound 289, 5-cyclopropyl-N-((2S,4R)-2-methyl-1-(N-methylsulfamoyl)piperidin-4-yl)isoxazole-3-carboxamide] | > 10 µM |
| COC(=O)CCS(=O)(=O)N1CC[C@@H](NC(=O)c2cc(C3CC3)on2)C[C@@H]1C [compound 290, methyl 3-(((2S,4R)-4-(5-cyclopropylisoxazole-3-carboxamido)-2-methylpiperidin-1-yl)sulfonyl)propanoate] | > 10 µM |
| C[C@H]1C[C@H](NC(=O)c2cc(C3CC3)on2)CCN1S(=O)(=O)CCC(F)(F)F [compound 292, 5-cyclopropyl-N-((2S,4R)-2-methyl-1-((3,3,3-trifluoropropyl)sulfonyl)piperidin-4-yl)isoxazole-3-carboxamide] | > 10 µM |
| CC(C)OCCS(=O)(=O)N1CC[C@@H](NC(=O)c2cc(C3CC3)on2)C[C@H]1C [compound 296, 5-cyclopropyl-N-((2R,4R)-1-((2-isopropoxyethyl)sulfonyl)-2-methylpiperidin-4-yl)isoxazole-3-carboxamide] | 5.97 µM |
| CC[C@@H]1CN(C(=O)CCCN)CC[C@@H]1NC(=O)c1cc(C2CC2)on1 [compound 297, N-((3R,4S)-1-(4-aminobutanoyl)-3-ethylpiperidin-4-yl)-5-cyclopropylisoxazole-3-carboxamide] | 1.8 µM |
